Experimental data published in US11911480B2, “Self-emulsifying composition of ω-3 fatty acid” (priority 2015, dated 2024).
Where two headings read alike, the source gives them in different places.

Columns and labels:
[1] = human, in vivo, po, 3600 mg
Protocol: The capsule having the self-emulsifying composition of the present invention containing 80% by weight of EPA-E as its content was orally administered to human (12 cases, healthy adult males of 20 to 40 years old with a body weight of 55.0 to 77.0 kg and a BMI of 18.5 or more but less than 25.0) under fasting conditions to evaluate the change of blood EPA concentration. The self-emulsifying composition in an amount corresponding to 1800 mg of EPA-E was orally administered in single dose to each human who had been fasted since 10 hours or more before the administration by using 200 mL of water in the morning under fasting. The blood was collected 0.5, 1, 1.5, 2, 3, 4, 5, 6, 7, 8, 9, 10, 12, 15, 18, 24, 48 and 72 hours after the administration. […] After having stored the resulting plasma at a temperature not higher than −20° C. in frozen state, concentration of the EPA in the plasma was measured by LC/MS/MS (method in which a sample is isolated by liquid chromatography, then subjected to mass spectrometry to conduct separation and measurement thereon). […]
This test was conducted on 6 humans. […] In the calculation of each parameter, correction was made by subtracting the blood EPA concentration before the administration from the measured blood concentration.

[2] = human, in vivo, po, 1800 mg
Protocol: The capsule having the self-emulsifying composition of the present invention containing 80% by weight of EPA-E as its content was orally administered to human (12 cases, healthy adult males of 20 to 40 years old with a body weight of 55.0 to 77.0 kg and a BMI of 18.5 or more but less than 25.0) under fasting conditions to evaluate the change of blood EPA concentration. The self-emulsifying composition in an amount corresponding to 1800 mg of EPA-E was orally administered in single dose to each human who had been fasted since 10 hours or more before the administration by using 200 mL of water in the morning under fasting. The blood was collected 0.5, 1, 1.5, 2, 3, 4, 5, 6, 7, 8, 9, 10, 12, 15, 18, 24, 48 and 72 hours after the administration. Immediately after the collection, the blood was cooled on ice, and centrifuged at 2000×g at 4° C. for 10 minutes to separately collect the plasma. After having stored the resulting plasma at a temperature not higher than −20° C. in frozen state, concentration of the EPA in the plasma was measured by LC/MS/MS (method in which a sample is isolated by liquid chromatography, then subjected to mass spectrometry to conduct separation and measurement thereon). […]
In the calculation of each parameter, correction was made by subtracting the blood EPA concentration before the administration from the measured blood concentration.

Cmax [1]: 3600 ng/mL
Cmax [2]: 4600 ng/mL
SMILES: CC/C=C\C/C=C\C/C=C\C/C=C\C/C=C\CCCC(=O)OCC [EPA-E stock solution, Ethyl eicosapentaenoate]
